Target: T1, Aromatase (Homo sapiens, UniProt P11511)
T1 sequence (P11511 whole entry): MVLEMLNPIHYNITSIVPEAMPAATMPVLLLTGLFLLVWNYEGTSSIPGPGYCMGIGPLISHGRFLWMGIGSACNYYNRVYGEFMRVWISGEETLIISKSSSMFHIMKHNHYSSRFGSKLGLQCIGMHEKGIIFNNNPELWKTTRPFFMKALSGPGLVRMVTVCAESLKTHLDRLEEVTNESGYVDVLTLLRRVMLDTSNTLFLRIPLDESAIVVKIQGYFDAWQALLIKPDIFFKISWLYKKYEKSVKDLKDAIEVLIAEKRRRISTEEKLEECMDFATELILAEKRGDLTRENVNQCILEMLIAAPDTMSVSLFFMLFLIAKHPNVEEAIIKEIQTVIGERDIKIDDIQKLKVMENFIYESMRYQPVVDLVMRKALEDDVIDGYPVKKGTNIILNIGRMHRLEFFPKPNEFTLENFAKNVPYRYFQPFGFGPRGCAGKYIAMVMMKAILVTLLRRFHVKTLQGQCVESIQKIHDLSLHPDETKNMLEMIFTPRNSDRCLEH
Description: Inhibition of recombinant human CYP19A1 using DBF as substrate measured after 1 hr by fluorescence assay

Row | Ki [nM] | Compound
1 | 8 | Clc1ccc(/C=C(\Cn2ccnn2)c2ccc(Cl)cc2)cc1
2 | 24 | Brc1ccc(/C=C(\Cn2ccnn2)c2ccc(Br)cc2)cc1
3 | 97 | Clc1ccc(/C=C(/Cn2ccnn2)c2ccc(Cl)cc2)cc1
4 | 450 | Brc1ccc(/C=C(/Cn2ccnn2)c2ccc(Br)cc2)cc1
5 | 81 | Clc1ccc(/C(=C\c2ccccc2)Cn2ccnn2)cc1
6 | 74 | Brc1ccc(/C(=C/c2ccccc2)Cn2ccnn2)cc1
7 | 79 | C(=C(\Cn1cncn1)c1ccccc1)/c1ccccc1
8 | 32 | C(=C(/Cn1cncn1)c1ccccc1)/c1ccccc1
9 | 57 | Clc1ccc(/C(=C/c2ccccc2)Cn2ccnn2)cc1
10 | 125 | Brc1ccc(/C(=C\c2ccccc2)Cn2ccnn2)cc1
11 | 290 | c1ccc(CC(Cn2ccnn2)c2ccccc2)cc1 (stereo unspecified)

Reference: ChEMBL document CHEMBL4339204, “Synthesis of α-methylstilbenes using an aqueous Wittig methodology and application toward the development of potent human aromatase inhibitors” (Bioorg Med Chem Lett, 2019)
